The text below walks through data of ChEMBL document CHEMBL1142596, “Diterpenes from Leucas aspera inhibiting prostaglandin-induced contractions” (J Nat Prod, 2006).

Assay [1] concerns Ileum. The assay is described as follows: Inhibition of prostaglandin E1-induced contraction in Hartley guinea pig ileum at 16 umol by modified Magnus assay. Format: functional, tissue-based. The note with it: Cavia porcellus.
Assay [2] concerns Ileum. In words: Inhibition of prostaglandin E2-induced contraction in Hartley guinea pig ileum at 48 umol by modified Magnus assay. Particulars: Cavia porcellus. Format: functional, tissue-based.
Assay [3] has as its system Radical scavenging activity. The assay is described as follows: Antioxidant activity assessed as DPPH-radical scavenging activity. In kind it is functional. (In general: Loss of DPPH colour is used to gauge radical scavenging.)
Assay [4] concerns Ileum. The assay is described as follows: Inhibition of prostaglandin E1-induced contraction in Hartley guinea pig ileum at 126 umol by modified Magnus assay. In kind it is functional, tissue-based. Particulars: Cavia porcellus.
The subject of assay [5] is Ileum. In words: Inhibition of prostaglandin E2-induced contraction in Hartley guinea pig ileum at 76 umol by modified Magnus assay. Format: functional, tissue-based. Particulars: Cavia porcellus.
Assay [6] concerns Ileum. In words: Inhibition of prostaglandin E2-induced contraction in Hartley guinea pig ileum at 64 umol by modified Magnus assay. Format: functional, tissue-based. Particulars: Cavia porcellus.
In assay [7] the test system is Ileum. In words: Inhibition of prostaglandin E1-induced contraction in Hartley guinea pig ileum at 39 umol by modified Magnus assay. In kind it is functional, tissue-based. The note with it: Cavia porcellus.

Calls of active or inactive are those of the source. No cut-off for these calls is given here.

Regarding `C=C[C@]1(C)C=C2C(=O)C[C@H]3C(C)(C)[C@@H](O[C@@H]4O[C@H](CO)[C@@H](O)[C@H](O)[C@H]4O[C@@H]4O[C@H](CO)[C@@H](O)[C@H](O)[C@H]4O)CC[C@]3(C)[C@H]2CC1`, the result in assay [1] and in assay [2] was Active. Besides, the result in assay [3] was inactive.
In the case of `C=CC(C)(O)CC(OC(C)=O)[C@]1(C)C2=C([C@H](OC(C)=O)C[C@@H]1C)[C@@](C)(COC(C)=O)C(=O)CC2` (stereo partly drawn), the result in assay [4] and in assay [5] was Active. In addition, in assay [3], the result was inactive.
Consider `C=CC(C)(O)CC(O)[C@]1(C)C2=C([C@H](OC(C)=O)C[C@@H]1C)[C@@](C)(COC(C)=O)C(=O)CC2` (stereo partly drawn), for which, in assay [3], the result was inactive.
In the case of `CC1(C)CC[C@]2(C(=O)O)CC[C@]3(C)C(=CC[C@@H]4[C@@]5(C)C[C@@H](O)[C@H](O)C(C)(C)[C@@H]5CC[C@]43C)[C@@H]2C1`, the result in assay [6] and in assay [7] was Active. The outcome in assay [3] was inactive.
In the case of `C=C[C@]1(C)C=C2C(=O)C[C@H]3C(C)(C)[C@@H](O[C@@H]4O[C@H](CO)[C@@H](O)[C@H](O)[C@H]4O[C@@H]4O[C@H](CO[C@@H]5O[C@H](CO)[C@@H](O)[C@H](O)[C@H]5O)[C@@H](O)[C@H](O)[C@H]4O)CC[C@]3(C)[C@H]2CC1`, the outcome in assay [4] and in assay [5] was Active. Moreover, in assay [3], the outcome was inactive.
As for `C=C[C@]1(C)C=C2C(=O)C[C@H]3C(C)(C)[C@@H](O[C@@H]4O[C@H](CO[C@@H]5O[C@H](CO)[C@@H](O)[C@H](O)[C@H]5O)[C@@H](O)[C@H](O)[C@H]4O[C@@H]4O[C@@H](C)[C@H](O)[C@@H](O)[C@H]4O)CC[C@]3(C)[C@H]2CC1`, the outcome in assay [6] and in assay [7] was Active. Besides, in assay [3], the result was inactive.
As for `C[C@@H]1CC(=O)[C@H]2C(C)(C)[C@@H](O)CC[C@]2(C)[C@@]12CC[C@@]1(CCOC1O)O2` (mixture of isomers), in assay [3], the outcome was inactive.
On the same count and under the same terms, in the case of `O=C(N[C@H](COC(=O)[C@H](Cc1ccccc1)NC(=O)c1ccccc1)Cc1ccccc1)c1ccccc1` it was “inactive”.
